Data reported in patent publication US9266872B2, “2-hydroxyarylamide derivative or pharmaceutically acceptable salt thereof, preparation method thereof, and pharmaceutical composition for preventing or treating cancer containing same as active ingredient” (KOREA RESEARCH INSTITUTE OF BIOSCIENCE AND BIOTECHNOLOGY, priority 2011, dated 2016).

Key:
TMPRSS4 serine protease = biological target: T1, TMPRSS4 serine protease (Homo sapiens, UniProt Q9NRS4); assay: Inhibitory effect on TMPRSS4 serine protease activity using peptide substrate; assay type: biochemical; details: kallikrein peptide substrate 100 μM, DMSO negative control; for Intracellular protease activity Inhibition % 10 uM / inhibition at 10 µM: 10 uM compound; for inhibition at 10 µM: read-out: Intracellular protease activity Inhibition % 10 uM; for Intracellular protease activity Inhibition % 30 uM / inhibition at 30 µM: 30 uM compound; for inhibition at 30 µM: read-out: Intracellular protease activity Inhibition % 30 uM; for inhibition at 100 µM: read-out: Intracellular protease activity Inhibition % 100 uM
T1 construct: TMPRSS4 serine protease domain (205th Val˜437th Leu) was cloned in pET21b/NdeI-XhoI; inferred from pET21b XhoI cloning and Ni-NTA purification) (C); made in house; host or cells: E. coli BL21 (DE3)
T1 sequence (Q9NRS4 205-437): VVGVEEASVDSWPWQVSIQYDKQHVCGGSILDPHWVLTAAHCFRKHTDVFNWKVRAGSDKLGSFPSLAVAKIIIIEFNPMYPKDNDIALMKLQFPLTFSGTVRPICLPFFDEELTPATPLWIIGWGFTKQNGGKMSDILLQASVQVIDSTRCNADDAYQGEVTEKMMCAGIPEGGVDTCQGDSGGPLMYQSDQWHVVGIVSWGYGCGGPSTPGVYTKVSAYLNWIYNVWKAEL
Description: TMPRSS4 serine protease domain (205th Val˜437th Leu) was cloned in pET21b/NdeI-XhoI, which was introduced in E. coli BL21 (DE3). At this time, FlagX2-enterokinase cleavage site ([…]; total 15 amino acids) was inserted in N-terminal of TMPRSS4 serine protease domain as shown in FIG. 1. The forward and reverse primers for PCR used for the cloning were presented by SEQ. ID. NO: 1 and NO: 2.
The cells were cultured in 10 ml of LB containing ampicillin at 37° C. overnight. IL of LB+ampicillin was added thereto, followed by further culture until OD reached 0.6˜0.8. 0.1 mM IPTG was added thereto, followed by further culture for 16 hours. Cell pellet was obtained, purified by Ni-NTA (Qiagen), and dialyzed. TMPRSS4 serine protease (pro-form) labeled with 2 mg of 2Xflag-enterokinase cleavage site was conjugated to Ni-NTA resin (4°, overnight). Enterokinase (NEB) was treated thereto at the concentration of 0.0002%/w/w at room temperature for 5 hours. The sample was washed, eluted with 50 mM imidazole in 20 mM of sodium phosphate buffer, and then dialyzed.
The protein activity was evaluated by measuring fluorescence shown during hydrolysis of the peptide. […] Reaction was induced after adding 100 μM of the peptide substrate into reaction buffer (50 mM Tris-HCl (pH 8.0), 10 mM CaCl2, 1 μM ZnCl2). Then, fluorescence was measured at 5 minutes interval (excitation 385 nm, emission 455 nm).
Then, fluorescence (excitation 385 nm/emission 455 nm) was measured at 5 minutes interval for 150 minutes. […] Dimethylsulfoxide (DMSO) was used as the negative control.

[1] = tested on: TMPRSS4 over-expressing colorectal cancer cell line SW480; assay: Inhibitory effect on infiltration of cancer cells over-expressing TMPRSS4 (matrigel trans-well); assay type: cell-based; details: Homo sapiens, read-out: Inhibition rate of target-expressing colorectal cancer cell activity (%, 0.1~2 uM); for inhibition at 0.1 µM: SW480 over-expressing TMPRSS4, 48 hours
Description: The cells were distributed in a 6-well plate at the density of 3×10^5 cells/well, followed by transfection. 48 hours later, the medium was replaced with a selection medium (800 μg/ml G418 medium). G418-resistant clone was separated, followed by culture for 2 weeks, during which selection was performed.
The cancer cell line constructed in step 1 was distributed in a 24-well trans-well plate (8 μm pore size; Costar, USA) whose porous membrane was coated with 100 μl of matrigel (BD Biosciences, USA) diluted with serum-free medium at the concentration of 250 μg/ml, which stood at room temperature for 1 hour for solidification. Lower chamber of the trans-well plate was coated with 100 μl of collagen type I (Sigma) at the concentration of 20 μg/ml. […] While culturing the cells in a 37, 5% CO2 incubator for 48 hours, cell migration from the upper chamber to lower chamber was allowed. […] The excessive crystal violet solution was washed away with distilled water. The migrated cell number was counted from 5 randomly selected areas (×200). The experiment was repeated at least twice under the same condition, and the representative result was presented.
The inhibitory effect of each compound on the infiltration of TMPRSS4 over-expressing colorectal cancer cell line SW480 was calculated by Mathematical Formula 1, which presents the number of infiltrated cells with % by the number of infiltrated cells in the negative control treated with DMSO. Infiltration Inhibition Rate (%)=100−Infiltrated cell number with the treatment of each compound/Infiltrated cell number with the treatment of DMSO×100 [Mathematical Formula 1]

| SMILES | Intracellular protease activity Inhibition % 10 uM (TMPRSS4 serine protease) | inhibition at 10 µM (TMPRSS4 serine protease) | inhibition at 30 µM (TMPRSS4 serine protease) | inhibition at 100 µM (TMPRSS4 serine protease; 100 uM compound) | also measured |
| --- | --- | --- | --- | --- | --- |
| O=C(Nc1cc(C(F)(F)F)c(Br)c(C(F)(F)F)c1)c1cc(Cl)ccc1O [Example 65, N-(4-bromo-3,5-bis(trifluoromethyl)phenyl)-5-chloro-2-hydroxybenzamide] | 58% | 51 to 100% |  |  | Intracellular protease activity Inhibition % 30 uM (TMPRSS4 serine protease): 85%; inhibition at 0.1 µM [1]: 53% |
| Cc1c(C(F)(F)F)cc(NC(=O)c2cc(Cl)ccc2O)cc1C(F)(F)F [Example 33, 5-chloro-2-hydroxy-N-(4-methyl-3,5-bis(trifluoromethyl)phenyl)benzamide] | 51% | 51 to 100% | 94% |  | inhibition at 0.1 µM [1]: 43% |
| O=C(Nc1cc(C(F)(F)F)cc(C(F)(F)F)c1)c1cc(Cl)ccc1O [Example 1, N-(3,5-bis(trifluoromethyl)phenyl)-5-chloro-2-hydroxybenzamide] | 64% | 51 to 100% | 96% | 100% | inhibition at 0.8 µM ([1]; SW480, 48 h): 76% |
| COc1c(C(F)(F)F)cc(NC(=O)c2cc(Cl)ccc2O)cc1C(F)(F)F [Example 39, 5-chloro-2-hydroxy-N-(4-methoxy-3,5-bis-trifluoromethyl-phenyl)-benzamide] | 56% | 51 to 100% | 80% |  |  |
| O=C(Nc1ccc(Br)c(C(F)(F)F)c1)c1cc(Cl)ccc1O [Example 16, N-(4-bromo-3-(trifluoromethyl)phenyl)-5-chloro-2-hydroxybenzamine] | 80% |  |  | 98% | Intracellular protease activity Inhibition % 30 uM (TMPRSS4 serine protease): 93% |
| O=C(Nc1ccc(C(F)(F)F)cn1)c1cc(Cl)ccc1O [Example 41, 5-chloro-2-hydroxy-N-(5-(trifluoromethyl)pyridine-2-yl)benzamide] |  |  | 25% | 47% |  |
| O=C(Nc1cc(Cl)cc(Cl)c1)c1cc(Cl)ccc1O [Example 61, 5-chloro-N-(3,5-dichlorophenyl)-2-hydroxybenzamide] |  | 15% | 58% |  |  |
| Cn1ccc(NC(=O)c2cc(Cl)ccc2O)n1 [Example 74, 5-chloro-2-hydroxy-N-(1-methyl-1H-pyrazol-3-yl)benzamide] |  | 14% |  |  |  |
| O=C(Nc1ccc(Br)c(C(F)(F)F)c1)c1cc(Cl)ccc1O [Example 63, N-(4-bromo-3-(trifluoromethyl)phenyl)-5-chloro-2-hydroxybenzamide] | 30% |  |  |  | Intracellular protease activity Inhibition % 30 uM (TMPRSS4 serine protease): 46%; Intracellular protease activity Inhibition % 100 uM (TMPRSS4 serine protease; 100 uM compound): 98% |
| O=C(Nc1cc(C(F)(F)F)ccc1Br)c1cc(Cl)ccc1O [Example 20, N-(2-bromo-5-(trifluoromethyl)phenyl)-5-chloro-2-hydroxybenzamide] |  | 40% | 100% |  |  |
| O=C(Nc1ccc(F)c(C(F)(F)F)c1)c1cc(Cl)ccc1O [Example 4, 5-chloro-N-(4-fluoro-3-(trifluoromethyl)phenyl)-2-hydroxybenzamide] | 64% | 51 to 100% | 86% | 98% |  |
| O=C(Nc1ncc(C(F)(F)F)cc1Cl)c1cc(Cl)ccc1O [Example 46, 5-chloro-N-(3-chloro-5-(trifluoromethyl)pyridine-2-yl)-2-hydroxybenzamide] |  |  | 0% | 0% |  |
| O=C(Nc1nccs1)c1cc(Cl)ccc1O [Example 51, 5-chloro-2-hydroxy-N-(thiazole-2-yl)benzamide] |  |  | 44% | 90% |  |
| O=C(Nc1cccc(C(F)(F)F)c1)c1cc(Cl)ccc1O [Example 10, 5-chloro-N-(3-(trifluoromethyl)phenyl)-2-hydroxybenzamide] |  | 37% | 91% |  |  |
| O=C(Nc1cc(C(F)(F)F)ccc1F)c1cc(Cl)ccc1O [Example 64, 5-chloro-N-(2-fluoro-5-(trifluoromethyl)phenyl)-2-hydroxybenzamide] | 67% |  |  | 100% |  |
| O=C(Nc1nc(C(F)(F)F)cs1)c1cc(Cl)ccc1O [Example 52, 5-chloro-2-hydroxy-N-(4-(trifluoromethyl)thiazole-2-yl)benzamide] |  |  | 61% | 100% |  |
| N#Cc1cccc(NC(=O)c2cc(Cl)ccc2O)c1 [Example 11, 5-chloro-N-(3-cyanophenyl)-2-hydroxybenzamide] |  | 12% | 47% | 88% |  |
| O=C(Nc1cc(C(F)(F)F)cc(C(F)(F)F)c1)c1cc(-c2ccc(F)cc2F)ccc1O [Example 30] |  | 5% | 31% |  |  |
| CC(=O)Nc1ccc(O)c(C(=O)Nc2cc(C(F)(F)F)cc(C(F)(F)F)c2)c1 [Example 35, 5-acetamido-N-(3,5-bis(trifluoromethyl)phenyl)-2-hydroxybenzamide] |  | 0% | 0% |  |  |
| O=C(Nc1cc(C(F)(F)F)ccc1F)c1cc(Cl)ccc1O [Example 21, 5-chloro-N-(2-fluoro-5-(trifluoromethyl)phenyl)-2-hydroxybenzamide] |  |  | 100% |  |  |
| Cc1csc(NC(=O)c2cc(Cl)ccc2O)n1 [Example 50, 5-chloro-2-hydroxy-N-(4-methylthiazole-2-yl)benzamide] |  |  | 0% | 67% |  |
| O=C(Nc1ccccn1)c1cc(Cl)ccc1O [Example 40, 5-chloro-2-hydroxy-N-(pyridine-2-yl)benzamide] |  |  | 0% | 11% |  |
| O=C(Nc1ccccc1)c1cc(Cl)ccc1O [Example 59, 5-chloro-2-hydroxy-N-phenylbenzamide] |  |  | 13% | 75% |  |
| CC1CN(Cc2csc(NC(=O)c3cc(Cl)ccc3O)n2)CC(C)O1 (centres unmarked) [Example 73, 5-chloro-N-(4-((2,6-dimethylmorpholino)methyl)thiazol-2-yl)-2-hydroxybenzamide] | 85% |  |  |  |  |
| O=C(NC1=NCCS1)c1cc(Cl)ccc1O [Example 69, 5-chloro-N-(4,5-dihydrothiazol-2-yl)-2-hydroxybenzamide] |  | 17% |  |  |  |
| O=C(Nc1cc(C(F)(F)F)cc(C(F)(F)F)c1)c1ccccc1O [Example 5, N-(3,5-bis(trifluoromethyl)phenyl)-2-hydroxybenzamide] |  | 0% | 20% |  |  |
| O=C(Nc1ccc(C(F)(F)F)cc1)c1cc(Cl)ccc1O [Example 15, 5-chloro-N-(4-(trifluoromethyl)phenyl)-2-hydroxybenzamide] |  | 22% | 100% |  |  |
| Cc1cc(C)nc(NC(=O)c2cc(Cl)ccc2O)n1 [Example 48, 5-chloro-N-(4,6-dimethylpyrimidine-2-yl)-2-hydroxybenzamide] |  |  | 0% | 0% |  |
